Measurements reported in US20010041801A1, “Water soluble fullerenes with antiviral activity” (The Regents of the University of California, priority 1994, published 2001).
Where “and” joins values, the source holds several entries; their conditions need not be identical. Equal values may be shown once. Entries after “also recorded” stand apart in the source; their conditions may differ.

Tests used:
DNA polymerase α = DNA polymerase α (Homo sapiens, UniProt P09884); experiment: Inhibition of cellular DNA polymerase α, cell-free; assay type: biochemical; conditions: AZT-5′-triphosphate used for AZT, read-out: IC50 Polymerases: DNA Polymerase α
DNA polymerase α, sequence (P09884 whole entry): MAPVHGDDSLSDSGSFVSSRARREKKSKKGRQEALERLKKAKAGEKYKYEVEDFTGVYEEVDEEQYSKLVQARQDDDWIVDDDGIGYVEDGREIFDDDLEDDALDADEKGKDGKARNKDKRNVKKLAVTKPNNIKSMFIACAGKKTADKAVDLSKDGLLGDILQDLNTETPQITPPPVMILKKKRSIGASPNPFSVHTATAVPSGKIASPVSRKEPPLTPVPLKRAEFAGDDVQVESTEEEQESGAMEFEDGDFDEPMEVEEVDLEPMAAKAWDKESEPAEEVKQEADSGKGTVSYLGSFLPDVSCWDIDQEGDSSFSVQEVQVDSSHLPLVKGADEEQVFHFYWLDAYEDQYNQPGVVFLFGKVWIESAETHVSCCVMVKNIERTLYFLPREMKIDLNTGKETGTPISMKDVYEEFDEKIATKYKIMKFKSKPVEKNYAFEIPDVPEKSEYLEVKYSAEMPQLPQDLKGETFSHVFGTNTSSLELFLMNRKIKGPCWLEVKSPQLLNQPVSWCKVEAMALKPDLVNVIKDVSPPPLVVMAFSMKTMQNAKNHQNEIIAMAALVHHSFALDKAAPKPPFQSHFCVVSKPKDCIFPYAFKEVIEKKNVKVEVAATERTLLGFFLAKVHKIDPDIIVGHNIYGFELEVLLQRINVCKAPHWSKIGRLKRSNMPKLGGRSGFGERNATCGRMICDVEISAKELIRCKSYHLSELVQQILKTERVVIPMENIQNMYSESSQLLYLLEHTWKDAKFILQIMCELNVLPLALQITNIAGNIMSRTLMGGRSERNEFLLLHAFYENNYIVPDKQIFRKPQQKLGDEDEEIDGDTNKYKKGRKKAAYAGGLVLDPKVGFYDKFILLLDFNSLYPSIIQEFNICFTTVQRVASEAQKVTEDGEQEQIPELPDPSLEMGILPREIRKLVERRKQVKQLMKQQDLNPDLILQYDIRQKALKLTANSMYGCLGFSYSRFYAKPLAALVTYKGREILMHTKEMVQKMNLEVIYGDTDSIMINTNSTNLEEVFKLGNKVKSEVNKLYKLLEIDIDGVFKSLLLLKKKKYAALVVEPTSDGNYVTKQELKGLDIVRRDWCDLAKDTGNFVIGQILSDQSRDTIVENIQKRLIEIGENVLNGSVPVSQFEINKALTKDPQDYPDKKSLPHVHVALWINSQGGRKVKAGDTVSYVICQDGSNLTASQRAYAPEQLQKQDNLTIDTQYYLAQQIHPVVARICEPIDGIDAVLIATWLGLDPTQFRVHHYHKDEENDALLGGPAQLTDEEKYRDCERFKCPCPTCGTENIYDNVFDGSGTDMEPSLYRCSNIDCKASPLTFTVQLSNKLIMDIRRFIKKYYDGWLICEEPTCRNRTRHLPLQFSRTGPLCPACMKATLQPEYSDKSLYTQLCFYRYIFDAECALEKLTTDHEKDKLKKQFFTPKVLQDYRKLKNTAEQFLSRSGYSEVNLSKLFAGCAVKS
DNA polymerase α, sequence (Q14181 whole entry partner): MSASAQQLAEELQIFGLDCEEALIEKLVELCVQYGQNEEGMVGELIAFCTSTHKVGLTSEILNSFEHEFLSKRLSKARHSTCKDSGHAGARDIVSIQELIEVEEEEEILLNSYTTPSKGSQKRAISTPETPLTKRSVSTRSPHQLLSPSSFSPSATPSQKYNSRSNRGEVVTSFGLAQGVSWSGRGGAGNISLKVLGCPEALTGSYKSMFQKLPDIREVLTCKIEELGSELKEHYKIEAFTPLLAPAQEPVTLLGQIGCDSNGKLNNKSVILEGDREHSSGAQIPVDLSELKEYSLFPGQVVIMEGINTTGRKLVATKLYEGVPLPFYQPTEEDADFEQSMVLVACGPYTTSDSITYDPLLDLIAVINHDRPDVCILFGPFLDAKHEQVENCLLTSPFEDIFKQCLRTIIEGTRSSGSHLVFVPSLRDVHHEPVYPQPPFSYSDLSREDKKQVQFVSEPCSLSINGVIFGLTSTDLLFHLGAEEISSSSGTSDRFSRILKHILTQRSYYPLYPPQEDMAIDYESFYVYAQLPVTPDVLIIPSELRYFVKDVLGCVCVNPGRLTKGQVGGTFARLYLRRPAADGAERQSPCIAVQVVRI
DNA polymerase α, sequence (P49642 whole entry partner): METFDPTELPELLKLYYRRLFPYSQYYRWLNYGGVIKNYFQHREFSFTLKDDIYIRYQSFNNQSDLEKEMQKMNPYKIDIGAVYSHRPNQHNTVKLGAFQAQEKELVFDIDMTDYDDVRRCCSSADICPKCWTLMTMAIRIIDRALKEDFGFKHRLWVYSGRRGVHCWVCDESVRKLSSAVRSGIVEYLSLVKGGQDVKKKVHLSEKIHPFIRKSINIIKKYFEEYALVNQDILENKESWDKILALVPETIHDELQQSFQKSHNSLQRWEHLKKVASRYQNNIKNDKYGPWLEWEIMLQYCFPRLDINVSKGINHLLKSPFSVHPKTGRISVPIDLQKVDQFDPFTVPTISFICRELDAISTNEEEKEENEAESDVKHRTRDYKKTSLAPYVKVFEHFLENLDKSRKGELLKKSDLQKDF
DNA polymerase α, sequence (P49643 whole entry partner): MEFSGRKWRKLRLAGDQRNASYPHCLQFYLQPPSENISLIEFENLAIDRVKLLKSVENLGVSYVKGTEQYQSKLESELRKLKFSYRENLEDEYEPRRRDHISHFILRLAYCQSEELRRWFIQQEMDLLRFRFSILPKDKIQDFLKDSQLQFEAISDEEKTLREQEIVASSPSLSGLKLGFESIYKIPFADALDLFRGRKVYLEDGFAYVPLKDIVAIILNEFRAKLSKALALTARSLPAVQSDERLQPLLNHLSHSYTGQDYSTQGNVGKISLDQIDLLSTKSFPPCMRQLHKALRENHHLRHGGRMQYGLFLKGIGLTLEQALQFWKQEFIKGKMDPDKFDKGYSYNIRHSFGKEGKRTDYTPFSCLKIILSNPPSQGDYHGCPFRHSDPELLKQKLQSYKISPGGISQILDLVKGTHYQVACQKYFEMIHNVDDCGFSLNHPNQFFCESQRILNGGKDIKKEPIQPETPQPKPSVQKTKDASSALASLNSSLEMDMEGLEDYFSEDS

[1] = test system: nevirapine (BI-RG587)-resistant HIV-1; experiment: Susceptibility of nevirapine-resistant HIV-1; assay type: cell-based; conditions: Human immunodeficiency virus 1, read-out: EC50 against nevirapine-resistant HIV-1
Vero cells = experiment: Cytotoxicity in Vero cells; assay type: cell-based; conditions: b68: up to 100 μM
[2] = Cytotoxicity in Vero cells; assay type: cell-based; conditions: African green monkey, Vero cells; day 3
[3] = Cytotoxicity in uninfected PBMC; assay type: cell-based, human; conditions: human, uninfected PBMC; thymidine uptake day 2 and cell counts day 6
PBMC = experiment: Cytotoxicity in uninfected PBMC; assay type: cell-based, human; conditions: b68: up to 100 μM
H9 cells = experiment: Cytotoxicity in H9 cells; assay type: cell-based, human; conditions: b68: up to 100 μM
Cytotoxicity in H9 cells = assay type: cell-based, human; conditions: human, H9 cells; cell counts on day 6
HIV-1LAI = experiment: Virus inactivation assay with cell-free virus; assay type: cell-based; conditions: 5 to 25 μM; cell-free virus incubated 2 hours at 37° C.; RT assay day 6
Experimental: Cell culture evaluation techniques well known in the art can also be used to determine the antiviral and antivirucidal properties of the compounds of this invention. For instance about 200 50% tissue culture infective doses of the virus to be tested and 2 ml of the compound to be tested are incubated for 2 hours at 37° C. After incubation, a growth medium is added to each tube and the tube is centrifuged at about 40,000 rpm for 30 minutes at 4° C. The supernatant is removed and the virus pellet is resuspended in fresh medium. The virions are added to human PBMC that has been stimulated for 2 days with phytohemagglutinin in 25 cm^2 flasks in a total of 10 ml of growth medium. After about six days, residual virus in the supernatant are quantitated by an RT assay such as that described by R. F. Schinazi, et al., Antimicrob. Agents Chemother., 36:2423-2431, 1992, or in Current Protocols in Molecular Biology, Ed. by F. M. Ausubel, Current Protocols, Vol. 1, §9.13.3 and in Example 8, Table 2 below.
To confirm these findings, inactivation studies with HIV-1LAI were performed. […] On day 6, residual virus in the supernatant was quantitated by an RT assay, as described previously (R. F. Schinazi, et al., Antimicrob. Agents Chemother., 36:2423-2431, 1992). […]

[4] = target: T1, recombinant HIV-1 protease (Human immunodeficiency virus type 1 group M subtype B, UniProt P04585); experiment: Antiprotease assay, method similar to Ido et al.; assay type: biochemical
T1 construct: HIV produces a small, dimeric aspartyl protease which specifically cleaves the polyprotein precursors
Experimental: Routine protocols can be followed to determine whether a derivatized buckministerfullerene compound has virucidal properties. […] This method is similar to that described by Ido, et al., J. Biol. Chem., 266:24359-24366, 1991). Inhibition is time dependent, and preincubation with the inhibitor results in greater enzyme inhibition, indicating a slow binding process
Compound 2c also has antiprotease activity. […] The method used for the assay was similar to that described by Ido, et al., J. Biol. Chem., 266:24359-24366, 1991).

HIV-2ROD = experiment: Antiviral activity in acutely infected human PBMC, virus RT level; assay type: cell-based; conditions: Human immunodeficiency virus 2, PBMC, 144 h, read-out: Antiviral Activity (EC50) in PBMC infected with HIV-2ROD
Experimental: (§1) Compound 2c was evaluated for antiviral activity in cells acutely and chronically infected with human immunodeficiency virus (HIV). Reverse transcriptase (RT) levels associated with virus were determined with virus concentrated from cell culture supernatants by high-speed centrifugation to reduce the chances of drug carryover in the enzyme assay using the method described in R. F. Schinazi, et al., Antimicrob. Agents Chemother., 36:2423-2431, 1992.

HIV-1 LAI = experiment: as above; assay type: cell-based; conditions: Human immunodeficiency virus 1, PBMC, 144 h, read-out: Antiviral Activity (EC50) in PBMC infected with HIVLAI
Experimental: as §1

HIV-1III = experiment: Antiviral activity in chronically infected H9 cells, virus RT level; assay type: cell-based; conditions: Human immunodeficiency virus 1, H9, 144 h, read-out: Antiviral Activity (EC50) in H9 cells infected with HIV-1III
Experimental: as §1

O=C(O)CCC(=O)NCCc1ccc(C2(c3ccc(CCNC(=O)CCC(=O)O)cc3)C34c5c6c7c8c9c%10c(c%11c%12c3c3c5c5c%13c6c6c7c7c9c9c%14c%10c%10c%11c%11c%12c%12c3c3c5c5c%13c%13c6c6c7c9c7c9c%14c%10c%10c%11c%11c%12c3c3c5c5c%13c6c7c6c9c%10c%11c3c56)C824)cc1 [Compound 2c, bis(monosuccinimide) derivative of p,p′-bis(2-aminoethyl)diphenyl-C60]
IC50 (DNA polymerase α): 4.9 µM and ~5 µM | EC50 [1]: 8.7 µM | cytotoxicity in Vero cells (Vero cells): No cytotoxicity; also recorded: noncytotoxic | IC50 at 3 days [2]: > 100 µM | IC50 [3]: > 100 µM | cytotoxicity in uninfected PBMC (words) (PBMC): No cytotoxicity; also recorded: noncytotoxic | cytotoxicity in uninfected PBMC (words) (PBMC; listed as bis(monosuccinimide) derivative of p,p′-bis(2-aminoethyl)-diphenyl): no cytotoxicity | cytotoxicity in H9 cells (H9 cells): No cytotoxicity; also recorded: noncytotoxic | IC50 at 6 days (Cytotoxicity in H9 cells): > 100 µM | reduction of virus infectivity relative to untreated control (HIV-1LAI): more than 95% | IC50 [4]: 2 µM | EC50 (HIV-2ROD): 5.5 ± 3.8 µM | EC50 (HIV-1 LAI): 7.3 ± 5.9 µM | EC50 (HIV-1III): 10.8 ± 8.2 µM
